In ChEMBL document CHEMBL3046734, “Molecular insights to explore abietane diterpenes as new LOX inhibitors” (Med Chem Res, 2013):

Experiments:
[1] = Inhibition of LOX (unknown origin); parameters: species or system Homo sapiens
[2] = Inhibition of Soybean LOX using linoleic acid as substrate incubated for 5 mins prior to substrate addition measured after 10 mins by spectrophotometric analysis; parameters: species or system Glycine max

| Structure (SMILES) | IC50 [1] [µM] | IC50 [2] [µM] |
| --- | --- | --- |
| COc1c(C(C)C)cc2c(c1O)[C@@]1(C)CCC(=O)C(C)(C)[C@@H]1CC2=O [TAXUSABIETANE A] | 57 |  |
| O=c1cc(-c2ccccc2)oc2cc(O)c(O)c(O)c12 [BAICALEIN] |  | 22.1 |
| COc1c(C(C)C)cc2c(c1O)C=C1C=CC(=O)C(C)(C)C1CC2=O (stereo not given) [TAXAMAIRIN F] |  | 73 |
| NC(=O)n1c(O)c(C(=O)c2cccs2)c2cc(Cl)ccc21 [TANIDAP SODIUM] |  | 41.6 |
| COc1c(C(C)C)cc2c(c1OC)[C@@]13CCC(=O)C(C)(C)[C@@H]1[C@H](OC3=O)C2=O [TAXUSABIETANE C] |  | 69 |
